Measurements published in patent US7361658B2, “2-acylaminothiazole derivative or salt thereof” (Astellas Pharma Inc., priority 2003, dated 2008).
Like-named read-outs stand apart in the source and are kept apart here.

Assays:
human c-mpl-Ba/F3 cells [1] = molecular target: T1, human c-mpl-Ba/F3 cells (Homo sapiens, UniProt P40238); assay: Human c-mpl-Ba/F3 cell growth test; format: cell-based; conditions: for Emax / Efficacy: maximum cell growth activity; for Emax: read-out: Efficacy
T1 construct: expressed in transfected cells; host or cells: Ba/F3 (murine pro-B cells) expressing human c-mpl
T1 sequence (P40238 26-635): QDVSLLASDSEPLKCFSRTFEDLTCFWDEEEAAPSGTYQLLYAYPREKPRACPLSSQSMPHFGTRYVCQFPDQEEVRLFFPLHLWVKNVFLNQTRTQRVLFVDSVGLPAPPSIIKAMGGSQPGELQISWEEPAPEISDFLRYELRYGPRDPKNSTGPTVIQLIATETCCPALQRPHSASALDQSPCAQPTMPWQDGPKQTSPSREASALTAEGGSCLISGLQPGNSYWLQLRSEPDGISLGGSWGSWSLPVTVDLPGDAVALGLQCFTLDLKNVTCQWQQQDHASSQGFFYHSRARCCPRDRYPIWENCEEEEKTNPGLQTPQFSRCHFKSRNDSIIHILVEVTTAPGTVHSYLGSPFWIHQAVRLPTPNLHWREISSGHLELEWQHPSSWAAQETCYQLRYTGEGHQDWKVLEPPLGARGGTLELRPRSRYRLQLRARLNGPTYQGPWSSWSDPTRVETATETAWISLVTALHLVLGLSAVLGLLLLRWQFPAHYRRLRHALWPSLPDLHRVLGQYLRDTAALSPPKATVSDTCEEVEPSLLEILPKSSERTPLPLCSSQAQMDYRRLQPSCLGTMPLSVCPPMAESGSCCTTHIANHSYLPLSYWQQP
Procedure: (i) Human c-mpl-Ba/F3 Cell Growth Test
In a 96-well microplate, 2×10^5 cells/ml of human c-mpl-Ba/F3 cells were cultured at 37° C. in 10% fetal bovine serum-containing RPMI1640 medium (100 μl/well) containing each test compound at each concentration. After 24 hours from the start-up of culture, 10 μl/well of WST-1/1-methoxy PMS (cell counting kit, Dojin) was added. Immediately after addition and 2 hours after addition, absorbance of A450/A650 was measured with a microplate reader (Model 3350: Bio-Rad), and an increase in absorbance for 2 hours was defined as a growth activity of each test compound.
pot: Concentration of each test compound at which to accelerate cell growth by 30% of a maximum cell growth activity of compound A (compound A and rhTPO in rhTPO)
Efficacy: Maximum cell growth activity of each test compound when a maximum cell growth activity of compound A (compound A and rhTPO in rhTPO) is defined as 100%.
Compound A refers to a compound in Example 9 of the foregoing Patent Document 10.

human c-mpl-Ba/F3 cells [2] = molecular target: T1, human c-mpl-Ba/F3 cells; assay: Mouse oral administration test: human c-mpl-Ba/F3 cell growth activity of a plasma after oral administration; format: in vivo; conditions: male ICR mouse, plasma 2 h after administration, maximum activity of each test compound = 100%
Procedure: (iii) Mouse Oral Administration Test
3 mg/kg or 10 mg/kg (100 mg/kg in Comparative Compounds 1 to 3) of a test compound dissolved or suspended in a 0.5% methylcellulose aqueous solution was orally administered to a male ICR mouse. After 2 hours from administration, a blood was sampled from the subabdominal large vein using 1/10-volume 3.8% sodium citrate as an anticoagulant. Centrifugation was performed at 12,000 rpm for 3 minutes. The resulting plasma was heated at 56° C. for 30 minutes, and added to a system of the human c-mpl-Ba/F3 cell growth test described in (i) such that the final concentration of the plasma reached 0.3%, 1% or 3% (10% in Comparative Compounds 1 to 3) to measure a cell growth activity. The cell growth activity (%) of each plasma was measured when the maximum cell growth activity of each test compound was defined as 100%.

[3] = concentration at which cell growth is accelerated by 30% of the maximum cell growth activity of compound A, 24 h culture
[4] = maximum of compound A defined as 100%
[5] = 10 mg/kg p.o., dilution rate 3%
[6] = concentration at which cell growth is accelerated by 30% of the maximum cell growth activity of rhTPO (applies to compound A and rhTPO)
[7] = maximum of rhTPO defined as 100% (applies to compound A and rhTPO)
[8] = 100 mg/kg p.o., dilution rate 10%

Row | Pot (human c-mpl-Ba/F3 cells [1]; [3]) [nM] | Emax (human c-mpl-Ba/F3 cells [1]; [4]) [%] | Molecule | further results
1 | 3.1 | 108 | CN(Cc1sc(NC(=O)c2cnc(N3CCC(C(=O)O)CC3)c(Cl)c2)nc1-c1cc(Cl)cs1)C1CC1 [Example 101, 1-{3-chloro-5-[(4-(4-chlorothiophen-2-yl)-5-{[cyclopropyl(methyl)amino]methyl}thiazol-2-yl)carbamoyl]-2-pyridyl}piperidine-4-carboxylic acid] | Cell growth activity (human c-mpl-Ba/F3 cells [2]; 3 mg/kg p.o., dilution rate 1%): 76%
2 | 4.4 | 102 | C[C@@H]1CCCN1Cc1sc(NC(=O)c2cnc(N3CC(CC(=O)O)C3)c(Cl)c2)nc1-c1cc(Cl)cs1 [Example 222, (1-{3-chloro-5-[(4-(4-chlorothiophen-2-yl)-5-{[(2R)-2-methylpyrrolidin-1-yl]methyl}thiazol-2-yl)carbamoyl]-2-pyridyl}azetidin-3-yl)acetic acid] | –
3 | 6.0 | 87 | CO[C@@H](C)CN(C)Cc1sc(NC(=O)c2cnc(N3CCC(C(=O)O)CC3)c(Cl)c2)nc1-c1cc(Cl)cs1 [Example 111, 1-{3-chloro-5-[(4-(4-chlorothiophen-2-yl)-5-{[[(2S)-2-methoxypropyl](methyl)amino]methyl}thiazol-2-yl)carbamoyl]-2-pyridyl}piperidine-4-carboxylic acid] | –
4 | 6.1 | 99 | CCCCN(C)Cc1sc(NC(=O)c2cnc(N3CCNC(=O)C3)c(Cl)c2)nc1-c1cc(Cl)cs1 [Example 153, N-[5-{[butyl(methyl)amino]methyl}-4-(4-chlorothiophen-2-yl)thiazol-2-yl]-5-chloro-6-(3-oxopiperazin-1-yl)nicotinamide] | Cell growth activity (human c-mpl-Ba/F3 cells [2]; [5]): 29%
5 | 4.6 | 88 | C[C@@H]1CCCN1Cc1sc(NC(=O)c2cnc(N(C)CCCC(=O)O)c(Cl)c2)nc1-c1cc(Cl)cs1 [Example 226, 4-[{3-chloro-5-[(4-(4-chlorothiophen-2-yl)-5-{[(2R)-2-methylpyrrolidin-1-yl]methyl}thiazol-2-yl)carbamoyl]-2-pyridyl}(methyl)amino]butyric acid] | –
6 | – | – | O=C(Nc1nc(-c2cc(Cl)cs2)c(N2CCN(C3CCCCC3)CC2)s1)c1ccc(OCCO)c(Cl)c1 [Compound A, reference compound] | Pot (human c-mpl-Ba/F3 cells [1]; [6]): 10 nM; Emax (human c-mpl-Ba/F3 cells [1]; [7]): 87%
7 | 6.9 | 96 | Cc1sc(NC(=O)c2ccc(/C=C(\Cl)C(=O)O)cc2)nc1-c1cccc(C(F)(F)F)c1 [Comparative Compound 3, reference compound] | Cell growth activity (human c-mpl-Ba/F3 cells [2]; [8]): <10%
8 | 3.2 | 88 | CC(C)N(C)Cc1sc(NC(=O)c2cnc(N(C)CCCC(=O)O)c(Cl)c2)nc1-c1cc(Cl)cs1 [Example 227, 4-[{3-chloro-5-[(4-(4-chlorothiophen-2-yl)-5-{[isopropyl(methyl)amino]methyl}thiazol-2-yl)carbamoyl]-2-pyridyl}(methyl)amino]butyric acid] | –
9 | 8.4 | 99 | CCCCN(C)Cc1sc(NC(=O)c2cnc(NCCCO)c(Cl)c2)nc1-c1cc(Cl)cs1 [Example 151, N-[5-{[butyl(methyl)amino]methyl}-4-(4-chlorothiophen-2-yl)thiazol-2-yl]-5-chloro-6-[(3-hydroxypropyl)amino]nicotinamide] | Cell growth activity (human c-mpl-Ba/F3 cells [2]; [5]): 24%
10 | 1.5 | 112 | C[C@@H]1CCCN1Cc1sc(NC(=O)c2cnc(N3CCC(C(=O)O)CC3)c(Cl)c2)nc1-c1cc(Cl)cs1 [Example 107, 1-{3-chloro-5-[(4-(4-chlorothiophen-2-yl)-5-{[(2R)-2-methylpyrrolidin-1-yl]methyl}thiazol-2-yl)carbamoyl]-2-pyridyl}piperidine-4-carboxylic acid] | –
11 | 4.4 | 101 | O=C1NC(=S)S/C1=C\c1ccc(C(=O)Nc2nc(-c3ccc(Cl)c(Cl)c3)cs2)cc1 [Comparative Compound 1, reference compound] | Cell growth activity (human c-mpl-Ba/F3 cells [2]; [8]): <10%
12 | 4.2 | 103 | O=C(Nc1nc(-c2cc(Cl)cs2)c(CN2CCCCCC2)s1)c1cnc(N2CCC(C(=O)O)CC2)c(Cl)c1 [Example 84, 1-(5-{[5-(azepan-1-ylmethyl)-4-(4-chlorothiophen-2-yl)thiazol-2-yl]carbamoyl}-3-chloro-2-pyridyl)piperidine-4-carboxylic acid] | Cell growth activity (human c-mpl-Ba/F3 cells [2]; 3 mg/kg p.o., dilution rate 1%): ≧80%
13 | – | – | C[C@H]1CCCN1Cc1sc(NC(=O)c2cnc(N3CCC(C(=O)O)CC3)c(F)c2)nc1-c1cc(Cl)cs1 [Example 314, 1-{5-[(4-(4-chlorothiophen-2-yl)-5-{[(2S)-2-methylpyrrolidin-1-yl]methyl}thiazol-2-yl)carbamoyl]-3-fluoro-2-pyridyl}piperidine-4-carboxylic acid] | Cell growth activity (human c-mpl-Ba/F3 cells [2]; 3 mg/kg p.o., dilution rate 3%): 52%
14 | – | – | rhTPO: thrombopoietin (TPO), a c-Mpl ligand; a protein | Pot (human c-mpl-Ba/F3 cells [1]; [6]): 0.012 nM; Efficacy (human c-mpl-Ba/F3 cells [1]; [7]): 100%
15 | 3.6 | 102 | CCCCN(C)Cc1sc(NC(=O)c2cnc(N3CCC(CO)CC3)c(Cl)c2)nc1-c1cc(Cl)cs1 [Example 150, N-[5-{[butyl(methyl)amino]methyl}-4-(4-chlorothiophen-2-yl)thiazol-2-yl]-5-chloro-6-[4-(hydroxymethyl)piperidino]nicotinamide] | Cell growth activity (human c-mpl-Ba/F3 cells [2]; 3 mg/kg p.o., dilution rate 0.3%): 28%
16 | 2.1 | 96 | O=C(O)/C(Cl)=C/c1ccc(C(=O)Nc2nc(-c3ccc(Cl)c(Cl)c3)cs2)cc1 [Comparative Compound 2, reference compound] | Cell growth activity (human c-mpl-Ba/F3 cells [2]; [8]): <10%
17 | 3.9 | 95 | C[C@H]1CCN(Cc2sc(NC(=O)c3cnc(N4CCC(C(=O)O)CC4)c(Cl)c3)nc2-c2cc(Cl)cs2)C1 [Example 109, 1-{3-chloro-5-[(4-(4-chlorothiophen-2-yl)-5-{[(3S)-3-methylpyrrolidin-1-yl]methyl}thiazol-2-yl)carbamoyl]-2-pyridyl}piperidine-4-carboxylic acid] | Cell growth activity (human c-mpl-Ba/F3 cells [2]; 3 mg/kg p.o., dilution rate 1%): 59%
18 | 4.3 | 114 | CN(C)Cc1sc(NC(=O)c2cnc(N3CCC(C(=O)O)CC3)c(Cl)c2)nc1-c1cc(Cl)cs1 [Example 65, 1-(3-chloro-5-{[4-(4-chlorothiophen-2-yl)-5-(dimethylaminomethyl)thiazol-2-yl]carbamoyl}-2-pyridyl)piperidine-4-carboxylic acid] | Cell growth activity (human c-mpl-Ba/F3 cells [2]; 3 mg/kg p.o., dilution rate 3%): ≧80%
19 | 251 | 95 | COc1cc(C(=O)Nc2nc(-c3ccc(F)cc3)c(N3CCN(C4CCCCC4)CC3)s2)ccn1 [Comparative Compound 4, reference compound] | –

Row | Molecule | Pot (human c-mpl-Ba/F3 cells [1]; [3]) [nM] | Emax (human c-mpl-Ba/F3 cells [1]; [4]) [%] | further results
20 | O=C(Nc1nc(-c2cc(Cl)cs2)c(CN2CCCCCCC2)s1)c1cnc(N2CCC(C(=O)O)CC2)c(Cl)c1 [Example 85] | 3.3 | – | Efficacy (human c-mpl-Ba/F3 cells [1]; [4]): 107%; Cell growth activity (human c-mpl-Ba/F3 cells [2]; 3 mg/kg p.o., dilution rate 1%): ≧80%
